Test results reported in US6949584B2, “TNP-470 species, polymer conjugates and use thereof” (Children's Medical Center Corporation, priority 2002, dated 2005).
Several values for one entry are separate records, joined by “and”; a condition that tells them apart may be missing. Equal entries are not always repeated. Entries after “also recorded” stand apart in the source; their conditions may differ.

Legend:
[1] = system: murine, human and metastatic tumors; settings: cited from earlier work
LLC [2] = settings: at doses of 60 and 90 mg/kg/q.o.d., stated as known; cited from earlier work
A2058 human melanoma = assay: Antitumor activity, SCID mice bearing s.c. A2058 human melanoma; format: in vivo; settings: for T/C (mean tumor volume treated / untreated control) / survival: 30 mg/kg TNP-470 equivalent
Source text: Each group consisted of 5 mice. […] 500 mm^3.

[3] = Rotorod test and body weight, 5 weeks treatment
in vivo = settings: male, C57BL/6J, mouse, 30 mg/kg
chick aortic ring = assay: Chick aortic ring endothelial sprouting assay; format: cell-based; settings: Matrigel
Protocol: Aortic arches were dissected from day-14 chick embryos, cut into cross-sectional fragments, and implanted in vitro in Matrigel using a modification of methods previously described (V. Muthukkaruppan, personal communication). When cultured in MCDB-131 medium supplemented with 5% fetal bovine serum, endothelial cells sprouted and vascular channel formation occurred within 24-48 hours.

LLC [4] = assay: Antitumor activity, C57BL/6J mice bearing s.c. LLC; settings: for survival: 30 mg/kg q.o.d. TNP-470 equivalent; for tumor growth inhibition: day 8, 30 mg/kg q.o.d., treatment started at 100 mm^3; for T/C: day 8, treatment started at 500 mm^3
Source text: Male C57BL/6J mice (˜8 weeks, ˜20 g) were inoculated with 5×10^6 viable LLC or A2058 melanoma cells s.c. The tumors were allowed to grow to a volume of approximately 100 mm^3. […] Each group consisted of 5 mice. Mice were euthanized when tumors reached or surpassed a size equivalent to 30% of their body weight. Animals were weighed daily and observed for signs of tumor progression and euthanized if their body weight decreased below 80% of their starting weight. Animals were monitored for general health, weight loss, and tumor progression. At termination, mice underwent post-mortem examination and tumors were dissected and weighed. […] The same dosing schedule was repeated with white SCID male mice (˜8 weeks, 20 g) inoculated with 5×10^6 viable A2058 human melanoma cells s.c. and treated as described above.

liver regeneration = assay: Hepatectomy (liver regeneration) model; format: in vivo, C57BL/6J mice; settings: for average liver size on post-operative day 8: 30 mg/kg q.o.d. s.c., controls regenerate to ~1.2 g
Protocol: Male C57BL/6J mice underwent a partial hepatectomy through a midline incision after general anesthesia with isoflourane^33. Free or conjugated TNP-470 (30 mg/kg) were given s.c. every other day for 8 days beginning on the day of surgery according to the scheme described in FIG. 4a. Alternatively, the doses given were 60 mg/kg the day of surgery and 4 days later or 120 mg/kg once on the day of the partial hepatectomy. The liver was harvested on the 8th day, weighed and analyzed by histology.
This non-neoplastic model is a relatively fast (8 days) in vivo angiogenesis-dependent process^33.

Early mouse development = settings: injected into 7 and 17 day-old mice
A2058 melanoma cells = assay: Serum-induced A2058 cell proliferation
Protocol: The dotted line represents the proliferation of bFGF-induced BCE or serum-induced A2058 cells (—) and the […] represents the BCE and A2058 cell proliferation in the absence of bFGF or serum, respectively ( - - - ).
BCE cells were obtained and grown as previously described^48. For the proliferation assay, cells were washed with PBS and dispersed in a 0.05% trypsin solution. […] The media was replaced with 0.25 ml of DMEM, 5% BCS and 1% GPS and the test sample applied. […] After 30 min of incubation, media and bFGF were added to obtain a final volume of 0.5 ml of DMEM, 5% BCS, 1% GPS and 1 ng/ml bFGF. Control cells were grown with or without bFGF. After 72 hr, cells were dispersed in trypsin, resuspended in Hematall (Fisher Scientific, Pittsburgh, Pa.), and counted in a Coulter counter.

[5] = clinical pharmacokinetics, in words; cited from earlier work
cathepsin B = cathepsin B (Homo sapiens, UniProt P07858); settings: incubation with cathepsin B, pH 5.5, 37° C.
Source text: These conditions imitate the lysosomal environment in endothelial cells where lysosomal enzymes, such as cathepsin B, are present.

[6] = in mice, mostly 30 mg/kg subcutaneously every other day
[7] = 30 mg/kg q.o.d. s.c. for 5 weeks

For `CO[C@@H]1[C@H](OC(=O)NC(=O)CCl)CC[C@]2(CO2)[C@H]1[C@@]1(C)O[C@@H]1CC=C(C)C` [TNP-470, O-(chloracetyl-carbamoyl) fumagillol], the “inhibition of growth of human tumors” value [1, 6] is listed as “up to 100%”, the “inhibition of growth of metastatic tumors” value [1, 6] is listed as “up to 100%” and the “inhibition of growth of murine tumors” value ([1]; mostly 30 mg/kg subcutaneously every other day) is listed as “up to 91%”. The “body weight of animals receiving the drug” value ([1]; with few exceptions) was “weight loss or failure to gain weight”, the “toxicity to the mice” value (LLC [2]) was “toxic” and the “T/C (mean tumor volume treated / untreated control)” value (A2058 human melanoma) was 0.34. The survival (A2058 human melanoma) was “increased survival”, the body weight [3, 7] was “lost weight” and the “time remaining on the rotating rod” value [3, 7] was “significantly shorter times”. The neurohistological alterations ([3]; data not shown) was “no visible neurohistological alterations”, the concentration at 1 h (in vivo) was 0.9 ng/mL and the concentration at 2 h (in vivo) was 1.7 ng/mL. For the same compound, the “concentration that completely prevented outgrowth” value (chick aortic ring) was 100 pg/mL, the “concentration that reduced the number and length of vascular sprouts” value (chick aortic ring) was 50 pg/mL and the water solubility (Water solubility) was “not water-soluble”. The TNP-470 in serum (after the 2 h time point) was “no detectable”, the “free TNP-470 concentrations in tumor specimens” value (any sample time point) was “no detectable concentrations” and the survival (LLC [4]) was “increased survival”. The tumor growth inhibition (LLC [4]) was 67%, the “average liver size on post-operative day 8” value (liver regeneration) was 0.7 g and the “inhibition of liver regeneration” value (liver regeneration; 30 mg/kg/q.o.d s.c.) was “inhibited liver regeneration”. The “inhibition of liver regeneration” value (liver regeneration; 60 mg/kg every four days) was “did not inhibit liver regeneration”, the “inhibition of liver regeneration” value (liver regeneration; single injection of 120 mg/kg on the day of hepatectomy, 120 mg/kg) was “did not inhibit liver regeneration” and the “effect on normal development (weight gain) of newborn mice” value (Early mouse development) was “causes delay in newborn mice development; also recorded: inhibited growth”. For the same compound, the “concentration at which inhibition of serum-induced proliferation (cytostatic effect) begins” value (A2058 melanoma cells; 72 h) was at least 10 ng/mL, the “doses with cytotoxic effect” value (A2058 melanoma cells; 72 h) was “higher than 100 μg/ml” and the “potency on endothelial cells relative to tumor cells” value (A2058 melanoma cells; BCE versus A2058 / tumor cells) was 4 logs and 3 logs.

In the case of `COc1cccc2c1C(=O)c1c(O)c3c(c(O)c1C2=O)C[C@@](O)(C(=O)CO)C[C@@H]3O[C@H]1C[C@H](N)[C@H](O)[C@H](C)O1` [doxorubicin], the t1/2a [5] is given as “a few minutes”.

With “HPMA copolymer-Gly-Phe-Leu-Gly (SEQ ID NO: 1)-ethylenediamine-TNP-470 [HPMA copolymer-TNP-470]” the “time until TNP-470 release from the conjugate reached a plateau” value (cathepsin B) was at most 5 h, the “T/C (mean tumor volume treated / untreated control)” value (A2058 human melanoma) was 0.12 and the survival (A2058 human melanoma) was “increased survival”. For the same compound, the “T/C values for the conjugate” value (A2058 human melanoma; summary statement in the conclusions, model not named) was 0.12-0.14, the “concentration that completely prevented outgrowth” value (chick aortic ring) was 100 pg/mL and the “concentration that reduced the number and length of vascular sprouts” value (chick aortic ring) was 50 pg/mL. For the same compound, the survival (LLC [4]) was “increased survival”, the T/C (LLC [4]; 30 mg/kg/q.o.d) was 0.4 and the T/C (LLC [4]; 60 mg/kg/q.o.d) was 0.4. For the same compound, the T/C (LLC [4]; 90 mg/kg/q.o.d) was 0.24, the tumor growth inhibition (LLC [4]) was 86% and the “average liver size on post-operative day 8” value (liver regeneration) was 0.7 g. The “inhibition of liver regeneration” value (liver regeneration; 30 mg/kg/q.o.d s.c.) was “inhibited liver regeneration”, the “inhibition of liver regeneration” value (liver regeneration; 60 mg/kg every four days, listed as Conjugated TNP-470) was “inhibited liver regeneration” and the “inhibition of liver regeneration” value (liver regeneration; 60 mg/kg every four days, listed as HPMA copolymer-TNP-470 conjugate) was “equivalent effect as the 30 mg/kg q.o.d. dosing schedule”. For the same compound, the “inhibition of liver regeneration” value (liver regeneration; single injection of 120 mg/kg on the day of hepatectomy, listed as Conjugated TNP-470, 120 mg/kg) was “inhibited liver regeneration” and the “inhibition of liver regeneration” value (liver regeneration; single injection of 120 mg/kg on the day of hepatectomy, listed as HPMA copolymer-TNP-470 conjugate, 120 mg/kg) was “equivalent effect as the 30 mg/kg q.o.d. dosing schedule”.
